Laboratory results: ChEMBL document CHEMBL1201862, “PubChem BioAssay data set” (2004)
Active and inactive are the calls of the source.

Columns and labels:
[1] = molecular target: T1, Short transient receptor potential channel 4 (Mus musculus, UniProt Q9QUQ5); assay: block of DAMGO-driven TRPC4 calcium entry – cell-based, HEK293 TRPC4/mu-opioid, Fluo-4 calcium, dose response (AID 434942); format: functional;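 note: potency of inhibitors blocking the TRPC4 calcium response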
T1 sequence (Q9QUQ5 whole entry): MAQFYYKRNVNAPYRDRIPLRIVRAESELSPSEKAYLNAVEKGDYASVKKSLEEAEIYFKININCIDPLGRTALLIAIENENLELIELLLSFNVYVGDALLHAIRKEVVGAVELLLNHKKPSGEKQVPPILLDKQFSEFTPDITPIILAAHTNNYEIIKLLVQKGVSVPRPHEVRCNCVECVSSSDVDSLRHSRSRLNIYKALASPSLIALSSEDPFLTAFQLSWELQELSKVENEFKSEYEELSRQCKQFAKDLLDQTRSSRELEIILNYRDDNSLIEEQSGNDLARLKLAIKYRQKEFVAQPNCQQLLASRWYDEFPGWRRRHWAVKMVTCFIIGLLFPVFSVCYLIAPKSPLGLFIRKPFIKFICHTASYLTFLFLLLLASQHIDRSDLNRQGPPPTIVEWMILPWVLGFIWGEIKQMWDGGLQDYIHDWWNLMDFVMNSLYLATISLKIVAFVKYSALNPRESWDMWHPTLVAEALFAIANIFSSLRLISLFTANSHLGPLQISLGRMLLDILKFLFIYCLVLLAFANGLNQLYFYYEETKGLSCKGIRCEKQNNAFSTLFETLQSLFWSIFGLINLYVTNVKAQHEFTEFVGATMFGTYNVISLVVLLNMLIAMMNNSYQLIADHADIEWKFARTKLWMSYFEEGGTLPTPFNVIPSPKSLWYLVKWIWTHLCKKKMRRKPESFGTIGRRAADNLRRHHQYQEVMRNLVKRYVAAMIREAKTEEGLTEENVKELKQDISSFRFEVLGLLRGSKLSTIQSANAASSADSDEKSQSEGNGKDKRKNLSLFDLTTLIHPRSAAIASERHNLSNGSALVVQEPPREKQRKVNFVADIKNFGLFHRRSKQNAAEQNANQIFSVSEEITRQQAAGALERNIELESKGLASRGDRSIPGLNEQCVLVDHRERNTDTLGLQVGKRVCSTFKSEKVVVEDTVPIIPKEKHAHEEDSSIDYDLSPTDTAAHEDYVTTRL

[2] = NIH3T3 cell viability loss – ATP luminescence, mouse fibroblasts, counter-screen, dose response (AID 2010); format: functional, cell-based;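 note: cells exposed to compound for about 90 hours before reading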
[3] = molecular target: T2, Microphthalmia-associated transcription factor (Homo sapiens, UniProt O75030); assay: reducers of TRPM1 reporter luminescence, concentration series – cell-based, SK-MEL-5, cherry-picked, set 3, MITF inhibitor project, dose response (AID 493073); format: functional;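 note: SK-MEL-5 melanoma cells with luciferase driven by the MITF target TRPM1 promoter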
T2 sequence (O75030 whole entry): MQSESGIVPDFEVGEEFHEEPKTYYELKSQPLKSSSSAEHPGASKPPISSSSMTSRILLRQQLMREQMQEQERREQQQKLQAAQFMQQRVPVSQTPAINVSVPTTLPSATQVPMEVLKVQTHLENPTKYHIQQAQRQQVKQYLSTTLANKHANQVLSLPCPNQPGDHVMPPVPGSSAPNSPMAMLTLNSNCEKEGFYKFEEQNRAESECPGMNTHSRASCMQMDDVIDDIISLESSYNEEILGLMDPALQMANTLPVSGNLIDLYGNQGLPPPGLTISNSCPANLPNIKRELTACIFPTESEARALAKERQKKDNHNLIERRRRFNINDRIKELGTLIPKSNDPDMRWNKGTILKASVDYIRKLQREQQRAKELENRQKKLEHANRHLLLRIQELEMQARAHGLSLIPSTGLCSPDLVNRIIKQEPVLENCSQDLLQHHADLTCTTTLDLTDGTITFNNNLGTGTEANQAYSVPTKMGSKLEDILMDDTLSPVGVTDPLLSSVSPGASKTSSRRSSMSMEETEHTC

[4] = Trypanosoma cruzi growth suppression in host cells – NIH3T3 host cells, beta-gal luminescence, confirmation (AID 2044); format: functional, cell-based;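 note: intracellular parasites grown in NIH/3T3 mouse fibroblasts as host cells; luminescent beta-galactosidase reporter signal from transgenic T. cruzi replicating inside host cells; inhibitors lower the luminescence signal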
[5] = molecular target: Protein-tyrosine kinase 2-beta (Homo sapiens, UniProt Q14289);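 note: potency of inhibitors of PYK2 kinase phosphorylation of poly-GT substrate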
[6] = molecular target: T3, Rac GTPase-activating protein 1 (Homo sapiens, UniProt Q9H0H5); assay: blockers of MgcRacGAP-driven Rac1 GTP hydrolysis – biochemical, ADP Hunter fluorescence, primary and confirmatory, confirmation (AID 624330); format: functional
T3 sequence (Q9H0H5 whole entry): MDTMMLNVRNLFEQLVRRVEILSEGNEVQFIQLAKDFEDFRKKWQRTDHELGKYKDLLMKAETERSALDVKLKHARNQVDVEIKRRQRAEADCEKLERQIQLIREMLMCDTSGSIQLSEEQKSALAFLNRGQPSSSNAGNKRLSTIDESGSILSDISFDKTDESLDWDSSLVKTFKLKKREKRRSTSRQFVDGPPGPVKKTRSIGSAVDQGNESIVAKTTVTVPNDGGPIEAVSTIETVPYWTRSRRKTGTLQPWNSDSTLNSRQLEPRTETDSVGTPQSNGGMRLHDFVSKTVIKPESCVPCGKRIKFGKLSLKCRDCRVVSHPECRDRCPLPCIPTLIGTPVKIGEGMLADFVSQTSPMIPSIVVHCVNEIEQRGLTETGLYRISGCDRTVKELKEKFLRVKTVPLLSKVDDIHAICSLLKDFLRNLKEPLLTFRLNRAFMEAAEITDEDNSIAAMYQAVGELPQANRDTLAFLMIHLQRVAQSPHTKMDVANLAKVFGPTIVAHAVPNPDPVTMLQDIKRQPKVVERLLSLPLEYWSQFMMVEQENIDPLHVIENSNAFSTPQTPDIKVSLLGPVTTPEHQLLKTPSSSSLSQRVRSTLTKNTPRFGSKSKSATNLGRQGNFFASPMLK

Estrogen receptor beta = Estrogen receptor beta (Homo sapiens, UniProt Q92731); assay: blockers of SRC-3 recruitment to ERβ – biochemical, ELISA, streptavidin-HRP readout, orthogonal assay, confirmation (AID 1060)
[7] = M. tuberculosis H37Rv growth inhibitors, H37Rv strain (AID 1626); format: functional
[8] = molecular target: T4, Serine/threonine-protein phosphatase (Candida dubliniensis (strain CD36 / CBS 7987 / NCPF 3949 / NRRLY-17841) (Yeast), UniProt B9W6M3); assay: blockers of CaCl2-induced CDRE-lacZ signaling – S. cerevisiae, luminescence, secondary, dose response (AID 2388); format: functional, cell-based;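 note: yeast reporter cells carrying a calcineurin-responsive lacZ construct stimulated with calcium chloride; luminescent beta-galactosidase reporter signal in whole cells rather than isolated phosphatase activity; potency for inhibition where a drop in reporter signal means calcineurin blockade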
T4 sequence (B9W6M3 whole entry): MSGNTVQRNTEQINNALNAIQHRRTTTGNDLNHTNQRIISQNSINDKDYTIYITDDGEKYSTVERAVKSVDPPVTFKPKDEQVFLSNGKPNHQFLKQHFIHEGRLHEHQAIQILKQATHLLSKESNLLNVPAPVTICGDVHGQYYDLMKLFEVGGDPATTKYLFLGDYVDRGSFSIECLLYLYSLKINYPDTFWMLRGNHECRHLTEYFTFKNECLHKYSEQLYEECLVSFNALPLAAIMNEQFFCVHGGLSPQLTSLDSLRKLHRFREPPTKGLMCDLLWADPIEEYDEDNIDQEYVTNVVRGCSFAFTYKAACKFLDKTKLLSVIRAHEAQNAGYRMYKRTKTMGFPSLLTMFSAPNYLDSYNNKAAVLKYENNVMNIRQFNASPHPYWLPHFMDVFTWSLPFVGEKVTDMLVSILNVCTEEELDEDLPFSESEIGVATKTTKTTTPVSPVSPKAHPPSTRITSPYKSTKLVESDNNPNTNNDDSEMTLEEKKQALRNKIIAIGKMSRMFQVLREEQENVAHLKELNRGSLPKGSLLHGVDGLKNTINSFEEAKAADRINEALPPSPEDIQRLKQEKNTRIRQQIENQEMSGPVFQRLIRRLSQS

[9] = viability loss of HPDE-C7K cells – cell-based, fluorescence, HTS, primary screen (AID 431); format: functional; settings: Homo sapiens
[10] = fluconazole-exposed Candida albicans growth modulators – fluorescence, retest, confirmation (AID 2467); format: functional, cell-based
[11] = general mammalian cell viability loss – inhibitor set, cherry-pick, set 2, cytotoxicity control for miR-122 modulator project, dose response (AID 720697); format: functional, cell-based
[12] = HPDE-C7 pancreatic duct cell viability loss – fluorescence, HTS (AID 430); format: functional, cell-based; settings: Homo sapiens
[13] = molecular target: ATP-dependent molecular chaperone HSP82 (Candida albicans (strain WO-1) (Yeast), UniProt C4YTQ8); assay: steroid-induced GRE reporter decrease in yeast – S. cerevisiae, luminescence, Hsp90 inhibitor project, dose response (AID 2400); format: functional, cell-based;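 note: beta-galactosidase luminescence from glucocorticoid response element reporter as proxy for Hsp90 function; inhibitor potency where signal loss means Hsp90 inhibition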
INS1 = assay: INS-1E survival protection against cytokine death – cell-based, luminescence, retest, dose response (AID 449756); format: functional; settings: Rattus norvegicus;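 note: cell death triggered by IL-1 beta plus TNF-alpha plus IFN-gamma mixture; protective hits raise ATP signal compared with cytokine alone wells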
[14] = NIH-3T3 fibroblast cytotoxicity, dose response, cytotoxicity control, cell-based, fluorescence, Alamar Blue, secondary assay (AID 2327); format: functional;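 note: NIH-3T3 mouse fibroblasts cultured with fluconazole at 8 µg/mL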
[15] = general mammalian cell viability loss – activator set, cherry-pick, cytotoxicity control for miR-122 modulator project, dose response (AID 720690); format: functional, cell-based;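 note: HEK293T human cells scored for general mammalian cytotoxicity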
Nonstructural protein 1 = Nonstructural protein 1 (Influenza A virus, UniProt Q194T2); format: functional, Influenza A virus (A/California/07/2009(H1N1))
[16] = Luminescence Cell-Based Dose Retest to Confirm Inhibitors of Cancer Stem Cells. [Related pubchem assays (depositor defined):AID2717, AID2721]; format: functional, Homo sapiens; settings: Homo sapiens
[17] = molecular target: T5, Calpain-2 catalytic subunit (Sus scrofa, UniProt P43367); assay: m-calpain protease blockers, concentration series – biochemical, fluorogenic peptide substrate, dose response (AID 1420); format: functional
T5 sequence (P43367 whole entry): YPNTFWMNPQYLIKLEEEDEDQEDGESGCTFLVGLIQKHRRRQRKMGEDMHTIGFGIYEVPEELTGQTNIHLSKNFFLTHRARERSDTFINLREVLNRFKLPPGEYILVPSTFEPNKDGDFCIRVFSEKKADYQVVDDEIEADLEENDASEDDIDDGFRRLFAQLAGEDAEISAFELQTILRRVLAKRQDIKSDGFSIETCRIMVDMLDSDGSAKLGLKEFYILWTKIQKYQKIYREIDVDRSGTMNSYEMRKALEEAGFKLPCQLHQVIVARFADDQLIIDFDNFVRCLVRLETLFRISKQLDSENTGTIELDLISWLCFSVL

[18] = molecular target: Voltage-gated inwardly rectifying potassium channel KCNH2 (Homo sapiens, UniProt Q12809); assay: concentration-dependent hERG rescue from blockers – cell-based, thallium flux, dose response (AID 2121); format: ADME
Protein skinhead-1 = molecular target: T6, Protein skinhead-1 (Caenorhabditis elegans, UniProt P34707); format: functional
T6 sequence (P34707 whole entry): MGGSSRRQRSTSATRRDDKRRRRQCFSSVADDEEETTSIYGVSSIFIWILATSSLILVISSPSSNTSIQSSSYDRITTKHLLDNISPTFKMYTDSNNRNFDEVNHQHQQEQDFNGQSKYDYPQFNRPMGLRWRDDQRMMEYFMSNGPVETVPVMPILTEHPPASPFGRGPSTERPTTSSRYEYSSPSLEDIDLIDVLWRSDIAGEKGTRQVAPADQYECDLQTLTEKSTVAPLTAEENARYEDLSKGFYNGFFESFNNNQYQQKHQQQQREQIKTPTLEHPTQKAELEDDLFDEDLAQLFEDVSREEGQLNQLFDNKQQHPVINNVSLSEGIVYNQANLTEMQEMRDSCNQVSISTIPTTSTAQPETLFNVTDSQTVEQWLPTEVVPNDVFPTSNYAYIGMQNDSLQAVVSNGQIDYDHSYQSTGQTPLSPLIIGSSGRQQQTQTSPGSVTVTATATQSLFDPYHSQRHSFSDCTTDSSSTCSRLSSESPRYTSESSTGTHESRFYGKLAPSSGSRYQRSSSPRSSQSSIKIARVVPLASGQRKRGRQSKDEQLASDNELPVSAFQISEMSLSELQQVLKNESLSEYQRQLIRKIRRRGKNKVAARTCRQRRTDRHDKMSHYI

Protein-tyrosine kinase 2-beta, sequence (Q14289 whole entry): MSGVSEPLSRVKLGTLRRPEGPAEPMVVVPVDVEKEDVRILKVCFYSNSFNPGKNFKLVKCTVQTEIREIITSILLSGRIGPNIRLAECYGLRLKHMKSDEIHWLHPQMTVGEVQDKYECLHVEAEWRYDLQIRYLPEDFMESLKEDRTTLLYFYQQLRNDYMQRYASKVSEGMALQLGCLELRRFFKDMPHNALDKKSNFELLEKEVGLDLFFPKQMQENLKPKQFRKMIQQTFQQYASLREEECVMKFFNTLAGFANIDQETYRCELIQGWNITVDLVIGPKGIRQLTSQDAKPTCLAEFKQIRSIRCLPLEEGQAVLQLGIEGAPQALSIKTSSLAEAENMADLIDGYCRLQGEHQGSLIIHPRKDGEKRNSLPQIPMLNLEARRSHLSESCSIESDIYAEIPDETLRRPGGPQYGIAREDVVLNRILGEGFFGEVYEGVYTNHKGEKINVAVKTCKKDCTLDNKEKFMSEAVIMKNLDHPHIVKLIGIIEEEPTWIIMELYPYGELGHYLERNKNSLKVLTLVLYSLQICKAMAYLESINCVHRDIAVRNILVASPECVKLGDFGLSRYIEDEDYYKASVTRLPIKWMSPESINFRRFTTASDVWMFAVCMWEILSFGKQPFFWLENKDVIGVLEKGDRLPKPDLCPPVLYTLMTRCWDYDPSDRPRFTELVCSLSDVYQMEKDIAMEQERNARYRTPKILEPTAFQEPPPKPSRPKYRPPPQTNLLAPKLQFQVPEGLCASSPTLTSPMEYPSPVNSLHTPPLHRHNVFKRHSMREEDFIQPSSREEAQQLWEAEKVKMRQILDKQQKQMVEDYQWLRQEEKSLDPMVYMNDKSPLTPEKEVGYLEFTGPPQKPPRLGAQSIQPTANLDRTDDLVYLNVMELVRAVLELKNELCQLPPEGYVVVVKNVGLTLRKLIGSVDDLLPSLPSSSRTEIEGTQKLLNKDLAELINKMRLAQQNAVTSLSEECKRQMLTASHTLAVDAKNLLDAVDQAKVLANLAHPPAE
Nonstructural protein 1, sequence (Q194T2 whole entry): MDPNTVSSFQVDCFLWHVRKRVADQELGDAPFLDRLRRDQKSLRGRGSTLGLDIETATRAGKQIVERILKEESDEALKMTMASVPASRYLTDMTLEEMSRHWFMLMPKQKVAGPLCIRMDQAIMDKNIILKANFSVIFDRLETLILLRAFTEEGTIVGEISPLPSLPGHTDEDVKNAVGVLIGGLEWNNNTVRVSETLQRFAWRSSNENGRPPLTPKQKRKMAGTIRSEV
Voltage-gated inwardly rectifying potassium channel KCNH2, sequence (Q12809 whole entry): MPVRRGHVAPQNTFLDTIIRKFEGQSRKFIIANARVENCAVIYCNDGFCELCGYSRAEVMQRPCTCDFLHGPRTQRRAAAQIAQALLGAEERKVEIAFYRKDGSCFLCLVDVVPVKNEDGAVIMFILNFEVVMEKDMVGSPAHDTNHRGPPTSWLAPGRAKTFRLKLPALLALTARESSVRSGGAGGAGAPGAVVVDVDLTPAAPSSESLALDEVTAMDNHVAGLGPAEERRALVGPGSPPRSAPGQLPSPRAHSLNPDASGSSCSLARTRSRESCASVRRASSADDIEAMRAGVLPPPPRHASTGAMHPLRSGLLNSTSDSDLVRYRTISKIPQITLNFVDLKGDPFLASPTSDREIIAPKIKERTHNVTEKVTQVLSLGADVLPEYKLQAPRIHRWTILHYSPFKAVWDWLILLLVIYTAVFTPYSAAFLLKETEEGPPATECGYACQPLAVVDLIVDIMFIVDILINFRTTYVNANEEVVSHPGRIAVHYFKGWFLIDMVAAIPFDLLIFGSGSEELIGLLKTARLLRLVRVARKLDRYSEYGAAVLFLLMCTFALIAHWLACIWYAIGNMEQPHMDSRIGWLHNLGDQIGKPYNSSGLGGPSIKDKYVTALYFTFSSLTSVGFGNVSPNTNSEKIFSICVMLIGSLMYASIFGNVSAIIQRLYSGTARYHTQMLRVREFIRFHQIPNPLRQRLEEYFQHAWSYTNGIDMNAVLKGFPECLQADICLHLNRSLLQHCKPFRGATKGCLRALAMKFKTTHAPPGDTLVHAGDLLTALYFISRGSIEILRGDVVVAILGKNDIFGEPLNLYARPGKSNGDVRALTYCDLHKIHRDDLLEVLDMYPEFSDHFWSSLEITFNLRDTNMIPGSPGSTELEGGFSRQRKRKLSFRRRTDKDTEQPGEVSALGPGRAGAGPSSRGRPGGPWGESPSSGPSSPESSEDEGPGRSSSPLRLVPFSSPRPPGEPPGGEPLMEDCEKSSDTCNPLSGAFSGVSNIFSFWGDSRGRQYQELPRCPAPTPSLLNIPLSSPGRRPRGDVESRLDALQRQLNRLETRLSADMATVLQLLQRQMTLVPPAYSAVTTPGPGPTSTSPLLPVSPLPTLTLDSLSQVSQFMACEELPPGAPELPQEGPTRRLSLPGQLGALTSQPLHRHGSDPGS
Estrogen receptor beta, sequence (Q92731 whole entry): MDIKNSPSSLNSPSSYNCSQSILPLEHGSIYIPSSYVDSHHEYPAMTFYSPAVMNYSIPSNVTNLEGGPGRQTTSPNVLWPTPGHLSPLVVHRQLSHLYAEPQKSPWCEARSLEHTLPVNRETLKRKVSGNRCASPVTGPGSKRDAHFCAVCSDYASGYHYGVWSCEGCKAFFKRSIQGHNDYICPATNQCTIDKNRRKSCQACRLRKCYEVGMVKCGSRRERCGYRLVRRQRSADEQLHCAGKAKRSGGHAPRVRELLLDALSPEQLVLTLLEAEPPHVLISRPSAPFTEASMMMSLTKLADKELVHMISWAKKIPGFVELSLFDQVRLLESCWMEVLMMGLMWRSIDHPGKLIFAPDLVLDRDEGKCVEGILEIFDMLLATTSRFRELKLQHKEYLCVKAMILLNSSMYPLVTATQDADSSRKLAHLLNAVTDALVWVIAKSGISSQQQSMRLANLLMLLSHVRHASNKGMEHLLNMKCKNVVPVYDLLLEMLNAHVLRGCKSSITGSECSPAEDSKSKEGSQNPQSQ
ATP-dependent molecular chaperone HSP82, sequence (C4YTQ8 whole entry): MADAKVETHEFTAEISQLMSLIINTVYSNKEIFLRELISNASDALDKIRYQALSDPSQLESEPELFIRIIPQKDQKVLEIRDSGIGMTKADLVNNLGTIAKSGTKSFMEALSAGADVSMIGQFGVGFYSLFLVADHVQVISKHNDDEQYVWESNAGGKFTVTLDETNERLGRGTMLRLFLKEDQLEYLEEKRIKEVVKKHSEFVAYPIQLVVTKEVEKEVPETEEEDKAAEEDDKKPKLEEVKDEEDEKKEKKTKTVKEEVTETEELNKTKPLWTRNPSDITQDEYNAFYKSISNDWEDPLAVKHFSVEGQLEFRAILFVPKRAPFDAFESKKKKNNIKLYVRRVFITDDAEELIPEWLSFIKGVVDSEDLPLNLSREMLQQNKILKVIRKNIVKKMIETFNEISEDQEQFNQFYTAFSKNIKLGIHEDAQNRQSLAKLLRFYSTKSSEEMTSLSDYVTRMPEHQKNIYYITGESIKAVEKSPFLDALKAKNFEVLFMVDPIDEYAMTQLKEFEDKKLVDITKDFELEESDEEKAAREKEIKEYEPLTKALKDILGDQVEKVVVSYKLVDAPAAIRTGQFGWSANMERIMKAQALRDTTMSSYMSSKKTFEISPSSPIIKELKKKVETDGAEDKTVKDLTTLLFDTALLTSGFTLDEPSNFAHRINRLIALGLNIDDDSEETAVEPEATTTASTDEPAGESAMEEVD

For `Cc1ccc(-c2c[n+](Cc3cccc(Cl)c3)c3n2CCC3)cc1`, the EC50 [1] was 1.33 µM (active), the EC50 [2] was > 30 µM (not active) and the EC50 (cells) was 0.025 µM (active). For the same molecule, the AC50 [3] was 12.2 µM (active) and the EC50 [4] was < 0.1 µM (active).

With `Cc1ccccc1-c1ccc(Nc2ccc(N3CCOCC3)cc2)nn1` the IC50 [5] was 14.5 µM (not active), the EC50 [2] was > 60 µM (not active) and the IC50 [6] was 79.6 µM (active). For the same molecule, the EC50 [4] was 1.42 µM (active) and the IC50 (Estrogen receptor beta) was < 0.023 µM (not active).

In the case of `CN(C)CCN(C(=O)c1cc(Cl)sc1Cl)c1nc2ccc(F)cc2s1`, the EC50 [2] is reported as > 60 µM (not active), the EC50 (cells) is reported as 0.211 µM (active) and the EC50 [4] is reported as < 0.1 µM (active).

For `CCOC(=O)CNC(=O)CSc1ncnc2c1nnn2-c1ccc(F)cc1`, the IC50 [7] was > 100 µM (active).

In the case of `O=C(Oc1c(CN2CCOCC2)cc(Cl)c2cccnc12)c1ccc(F)cc1`, the EC50 [8] is reported as > 180 µM (inactive), the EC50 [9] is reported as 12.7 µM (active) and the EC50 [10] is reported as 1.54 µM (active). For the same molecule, the AC50 [11] was 5.7 µM (active), the EC50 [12] was 4.28 µM (active) and the EC50 [13] was > 160 µM (inactive). For the same molecule, the AC50 (INS1) was 3.99 µM (active), the EC50 [2] was > 60 µM (not active) and the EC50 [14] was > 160 µM (inconclusive). For the same molecule, the EC50 [4] was 4.69 µM (active) and the AC50 [15] was 9.1 µM (active).

For `Cc1nn2c(c1-c1ccccc1)N=C1CCCC(O)=C1C2c1ccccc1` (centres undefined), the IC50 [5] was > 69.5 µM (not active).

In the case of `Cc1ccc(C(C#N)c2ccc3c(C(F)(F)F)cc(C(F)(F)F)nc3n2)cc1` (centres undefined), the IC50 (Nonstructural protein 1) is reported as 24.4 µM (active), the AC50 [16] is reported as 1.78 µM (active) and the IC50 [17] is reported as > 50 µM (not active). The EC50 [18] was 6 µM (active) and the IC50 (Protein skinhead-1) was > 100 µM (inactive).

With `CCOC(=O)C1CCN(Cc2c[nH]nc2-c2ccc(C)cc2)CC1` the EC50 [9] was > 20 µM (not active) and the EC50 [12] was > 20 µM (not active).

For `N#C/C(=C/c1ccc(-c2ccc(Br)cc2)o1)C(=O)NC1CCCCC1`, the IC50 [7] was > 100 µM (active).
